Results as given in US8653027B2, “Method of treatment of type-1 diabetes with humanin analogues” (The Regents of the University of California, priority 2007, dated 2014).
“Also recorded” adds a separate entry of the source. Read-outs that look alike come from different tables or passages of the source.

How the values were obtained:
NONcNZO10/LtJ mice = assay: IP glucose tolerance test in NONcNZO10/LtJ mice (obesity-induced type 2 diabetes model); format: in vivo, mouse; conditions: 25 μg IP twice a day for 14 days
Procedure: NONcNZO10/LtJ mice are a model for obesity-induced type 2 diabetes. NONcNZO10/LtJ mice were injected IP with 25 μg F6A-HNG twice a day for 14 days. Mice were subjected to 6 hour fast followed by an IP GTT on D15. Baseline glucose measurement was taken and the mice were injected IP with 0.5 mg/g glucose. Glucose was sampled at 0 and 90, 120 min.

IGFBP-3 deficient MEFs = assay: Apoptosis ELISA in IGFBP-3 deficient mouse embryonic fibroblasts; format: cell-based; conditions: 100 nM peptide, 24 hours
Procedure: (§1) Mouse embryonic fibroblasts (MEFs) derived from normal (wild-type) and IGFBP3 deficient mice were used to test the effects of humanin and its analogues on survival. Apoptosis was measured after 24 hours with 100 nM of each peptide by ELISA. […] The increased potency seems to result from the lack of IGFBP-3 binding, because there is no additional advantage when IGFBP-3 is not present. Thus, F6A-HNG is distinct from previously described humanin derivatives.

NIT cells = assay: Survival and STAT-3/ERK activation in NIT cells, potency compared to humanin; format: cell-based
IGFBP-3 = IGFBP-3 (Homo sapiens, UniProt P17936); assay: IGFBP-3 binding
IGFBP-3, sequence (P17936 28-291, species assumed): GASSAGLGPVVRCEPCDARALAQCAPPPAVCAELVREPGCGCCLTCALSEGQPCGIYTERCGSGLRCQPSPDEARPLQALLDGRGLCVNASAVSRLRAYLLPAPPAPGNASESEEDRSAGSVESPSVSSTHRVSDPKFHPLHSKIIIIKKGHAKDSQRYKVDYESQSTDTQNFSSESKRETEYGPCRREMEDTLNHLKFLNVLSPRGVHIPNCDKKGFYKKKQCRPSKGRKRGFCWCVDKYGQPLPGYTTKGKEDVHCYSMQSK

normal (wild-type) MEFs = assay: Apoptosis ELISA in normal (wild-type) mouse embryonic fibroblasts; format: cell-based; conditions: 100 nM peptide, 24 hours
Procedure: as §1

STAT3 = STAT3 phosphorylation in NIT-1 cells by immunoblotting; format: cell-based, Mouse; conditions: 100 nM HN, serum free media
Procedure: (§2) To investigate the mechanism of Humanin-induced beta cell survival, we treated NIT-1 cells with 100 nM HN in serum free media. Cell lysates were harvested and phosphorylated ERK1/2 and STAT3 were assessed by immunoblotting.
(§3) Phosphorylation of ERK (activation) occurred 15 minutes after adding HN. Phosphorylation of STAT3 (activation) was a later event, 4 hours after addition of HN (FIG. 2).

NOD mice [1] = assay: Insulitis scoring of pancreatic sections from NOD mice; format: in vivo, mouse; conditions: humanin-treated NOD mice vs vehicle-treated control
From the text: To test whether administration of humanin regulates the extent of lymphocyte infiltration into pancreatic islets, fixed and embedded pancreatic tissues were examined. Pancreata from humanin-treated NOD mice were formalin fixed, stained with hematoxylin/eosin, and assessed in a blinded fashion to determine the degree of lymphocyte infiltration. Results were compared to tissues from saline-injected control mice. Three or four randomly selected and nonadjacent sections from each pancreas were scored independently by two blind observers and evaluated for mononuclear cell infiltration. Severity of infiltration was classified based on the degree of lymphocytic infiltration as follows: G0—normal (no infiltration); G1—peri-insulitis (mononuclear cells surrounding islets and ducts but no infiltration of the islet architecture); G2—moderate insulitis (mononuclear cells infiltrating less than 50% of the islet architecture); and G3—severe insulitis (more than 50% of the islet tissue infiltrated by lymphocytes, accompanied by a reduction in insulin staining). See Pastorale et al. (2002) Exp Biol Med (Maywood) 227:282-89.

ERK1/2 = ERK1/2 phosphorylation in NIT-1 cells by immunoblotting; format: cell-based, Mouse; conditions: 100 nM HN, serum free media
Procedure: as §2, §3

NOD mice [2] = assay: Onset of diabetes in NOD mice over 20-week treatment; format: in vivo, mouse; conditions: female NOD mice, 0.7 mg/kg/d IP daily from 5 weeks of age, vs saline, 0.7 mg/kg/day
Procedure: Four-week-old female NOD mice were treated with humanin. Before treatment, mice were tested two to three times per week for nonfasting blood glucose levels. Mice with blood glucose levels higher than 300 mg/dL on three consecutive measurements were considered diabetic. Beginning at 5 weeks of age, two groups of NOD mice (n=25 each) were administered (0.7 mg/kg/d) synthetic humanin by IP injection daily (Bachem). NOD mice injected with the same volume of saline served as negative controls.

NOD mice [3] = format: in vivo; conditions: for glucose tolerance (response to glucose challenge): NOD mice, 0.7 mg/kg/d IP for 6 weeks, fasted overnight, vs saline
Procedure: As proof of principle, we examined whether a 6-week course of daily IP injected humanin (0.7 mg/kg/d) to euglycemic 9-week-old NOD mice (Taconic) could improve glucose tolerance as compared to saline-injected control mice (n=12/group). […] At the conclusion of the treatment, mice were fasted overnight and divided into groups that were subjected to IP insulin and glucose tolerance testing (n=6/group). […] We additionally harvested serum, pancreata, and various other organs from these mice for histological studies and analysis of serum humanin, IGFBP-3, and other IGF-related peptides.

NIT-1 cells = assay: Caspase 3/7 fluorometric assay (ApoONE) of cytokine-induced apoptosis in NIT-1 cells; format: cell-based, Mouse
Procedure: Apoptosis is the main form of pancreatic beta cell death in animal models of type 1 diabetes mellitus. […] In this study, we used a caspase 3/7 specific fluorometric assay (ApoONE, Promega) to measure the degree of apoptosis induction by cytokines in NIT-1 cells.
Cells were cultured as described above. For the experiment, NIT-1 cells were seeded in 96-well plates at a density of 0.128×10^5 cells per well. After about 24 hours, medium was changed to FCS-free medium and the cells were exposed to TNF-α (5 ng/mL) or were kept untreated as controls. As expected, TNF-α induced apoptosis in NIT-1 cells at 48 hours.
TNF-α increased apoptosis approximately 40% compared to serum-deprived cells.

NIT-1 insulinoma cells = assay: Serum starvation-induced apoptosis of NIT-1 cells, histone-associated DNA ELISA; format: cell-based, Mouse; conditions: NIT-1 cells serum starved 24 hours, humanin 1 to 10000 nM
Procedure: Secondary to the pro-survival effect of humanin observed in neuronal cells, we hypothesized that humanin could be a survival factor for neuroendocrine beta cells. Mouse NIT-1 insulinoma cells were serum starved for 24 hours as control, and compared to cultures co-incubated with increasing doses of humanin ranging from 1 to 10000 nM.
Conditions were as follows: NIT-1 cells were purchased from ATCC and maintained in F-12 Ham's medium (F12-K) supplemented with 10% FBS (fetal bovine serum), 10% L-glutamine, Penicillin (100 U/ml) and Streptomycin (100 μg/ml), in 25 cm^2 tissue culture flasks (Greiner, Frickenhausen, Germany). NIT-1 cells were maintained at 37 C in a 5% CO2/95% air mixture and were passaged twice weekly by trypsination (Invitrogen life technologies, Karlsruhe, Germany). For the experiment, NIT-1 cells were seeded in 96-well plates at a density of 0.128×10^5 cells per well. After about 24 hours, medium was changed to FCS-free medium.
Apoptosis was quantified by a specific histone-associated DNA ELISA.

F6A-HNG: humanin analogue, SEQ ID NO:16 MAPRGASCLLLLTGEIDLPVKRRA (synthetic humanin (HN) analogue F6A-HNG)
glucose levels at 90 and 120 min (NONcNZO10/LtJ mice; IP GTT on D15): significantly lower
glucose tolerance (NONcNZO10/LtJ mice; IP GTT on D15 after 6 hour fast, 0.5 mg/g glucose): significantly better glucose tolerance
potency on survival (apoptosis) in IGFBP-3 deficient MEFs (IGFBP-3 deficient MEFs): equal potency
potency in promoting survival and activating STAT-3 and ERK, compared to humanin (NIT cells): even greater potency
IGFBP-3 binding (IGFBP-3): does not bind IGFBP-3; also recorded: devoid of IGFBP-3 binding activity
potency on survival (apoptosis) in normal MEFs (normal (wild-type) MEFs): more potent

F6AK21A-HNG: humanin analogue, SEQ ID NO:17 MAPRGASCLLLLTGEIDLPVARRA (synthetic humanin (HN) analogue F6AK21A-HNG)
potency in promoting survival and activating STAT-3 and ERK, compared to humanin (NIT cells): even greater potency

Z-HN: humanin analogue, SEQ ID NO:18 MAKRGLNCLPHQVSEIDLSVQKRI (synthetic humanin (HN) analogue Z-HN)
potency in promoting survival and activating STAT-3 and ERK, compared to humanin (NIT cells): two-fold greater potency than humanin

Humanin: 24 amino acid peptide, SEQ ID NO:1 MAPRGFSCLLLLTSEIDLPVKRRA
STAT3 activation (STAT3): activates ERK and STAT3
time of phosphorylation of STAT3 (activation) after addition of HN (STAT3): 4 h
total number of islets infiltrated by lymphocytes (NOD mice [1]): significantly decreased
severity of lymphocyte infiltration (insulitis) (NOD mice [1]; grades G0-G3): significantly decreased; also recorded: decreased insulitis severity
ERK activation (ERK1/2): activates ERK
time of phosphorylation of ERK (activation) after adding HN (ERK1/2): 15 min
onset of diabetes (NOD mice [2]): delays onset of diabetes
onset of diabetes (NOD mice [2]; listed as humanin): significantly delayed the onset of diabetes
glucose tolerance (response to glucose challenge) (NOD mice [3]): improves glucose tolerance
glucose tolerance (response to glucose challenge) (NOD mice [3]; listed as humanin): non-diabetic response to glucose challenge
tolerability of daily IP injections (NOD mice [3]; mouse, in vivo, ip, 0.7 mg/kg/day): tolerated well
protection from serum starvation induced apoptosis (caspase 3/7 assay) (NIT-1 cells; FCS-free medium, humanin 10 to 1000 nM): protects beta cells from cytokine-induced apoptosis and serum starvation induced apoptosis in a dose-dependent manner
protection from TNF-α induced apoptosis (NIT-1 cells; TNF-α 5 ng/mL, 48 hours, humanin 10 to 1000 nM, caspase 3/7 assay): protected beta cells from TNF-α induced apoptosis in a dose dependent manner
IGFBP-3 binding (IGFBP-3): binds IGFBP-3
protection from serum-starvation induced apoptosis (NIT-1 insulinoma cells): potently protected beta cells from serum-starvation induced apoptosis in a dose dependent manner
protection from serum-starvation induced apoptosis (NIT-1 insulinoma cells; listed as humanin): reduced the level of apoptosis

TNF-α [reference compound]
increase of apoptosis compared to serum-deprived cells (NIT-1 cells; TNF-α 5 ng/mL, 48 hours): approximately 40%

HNG: humanin analogue, SEQ ID NO:2 MAPRGFSCLLLLTGEIDLPVKRRA (synthetic humanin (HN) analogue S14G-HN (HNG))
potency on survival (apoptosis) in IGFBP-3 deficient MEFs (IGFBP-3 deficient MEFs): equal potency
